Tests used:
MDA-MB-468 cell line = assay: Inhibition of proliferation of MDA-MB-468 cancer cells (Cell Titer-Glo); type: cell-based; settings: Homo sapiens, MDA-MB-468, 72 hours
Procedure, shortened: (§1)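 A 72-hour treatment with compound (eleven final concentrations, 3-fold apart, top 10 μM) of cells seeded at 2,000 per well preceded a Cell Titer-Glo luminescence read, from which GI50 was obtained.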

human DYRK1A and tau = assay: Inhibition of tau phosphorylation, ClariCELL Kinase Cell-Based Assay, HEK 293 cells expressing human DYRK1A and tau; settings: for inhibition at 1 µM: HEK293, read-out: % inhibition at 1 uM, tau phosphorylation, compound 1 uM; for inhibition at 0.25 µM / inhibition at 0.5 µM: HEK293, tau phosphorylation; for inhibition at 0.25 µM: compound 0.25 uM; for inhibition at 0.5 µM: compound 0.5 uM
Procedure, shortened: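 Cell-based service assay: HEK 293 cells transiently expressing human DYRK1A and tau were treated with compound and lysed. Released tau was plate-captured and its phosphorylation quantified by ELISA with a phospho-tau-specific antibody.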

CLK1 = target: T1, CLK1 (Homo sapiens, UniProt P49759); assay: Kinase HotSpot service (Reaction Biology Corporation), CLK1; type: biochemical; settings: ATP 10 uM, read-out: CLK1 IC50 (values indicated by *)
T1 construct: purchased DiscoverX Corp. (ScanMAX Kinase analysis panel, service)
T1 sequence (P49759 whole entry): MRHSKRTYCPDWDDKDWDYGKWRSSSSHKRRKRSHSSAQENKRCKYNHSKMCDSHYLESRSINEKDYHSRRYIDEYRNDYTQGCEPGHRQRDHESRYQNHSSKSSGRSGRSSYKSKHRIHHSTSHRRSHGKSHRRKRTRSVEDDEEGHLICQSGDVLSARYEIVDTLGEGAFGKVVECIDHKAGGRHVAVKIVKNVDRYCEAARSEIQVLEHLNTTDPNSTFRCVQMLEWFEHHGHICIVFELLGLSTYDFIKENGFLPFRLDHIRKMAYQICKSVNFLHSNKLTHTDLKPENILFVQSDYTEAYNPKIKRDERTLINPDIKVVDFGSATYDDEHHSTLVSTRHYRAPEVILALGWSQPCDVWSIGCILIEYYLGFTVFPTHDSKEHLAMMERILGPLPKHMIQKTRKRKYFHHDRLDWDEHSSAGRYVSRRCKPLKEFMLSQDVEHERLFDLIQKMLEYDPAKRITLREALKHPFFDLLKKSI
Method: (§2) The inhibitory activities of the compounds were measured at a 3-fold concentration gradient starting from a maximum compound concentration of […], and the values measured using the Kinase HotSpot service (Reaction Biology Corporation) are indicated by an asterisk (*).
(§3) All the experimental methods were performed as provided by the Kinase HotSpot Customer Protocol (http://www.reactionbiology.com//Kinase_Assay_Protocol).

DYRK1 = DYRK1 (Homo sapiens, UniProt Q13627); assay: Kinase HotSpot service (Reaction Biology Corporation), DYRK1; type: biochemical; settings: ATP 10 uM, read-out: DYRK1 IC50 (values indicated by *)
Method: as §2, §3

TTK = target: T2, TTK (Homo sapiens, UniProt P33981); assay: TTK enzyme inhibition, ADP-Glo kinase assay; type: biochemical; set-up: purchased SignalChem T20-10G; settings: ATP 5 μM
T2 sequence (P33981 1-857): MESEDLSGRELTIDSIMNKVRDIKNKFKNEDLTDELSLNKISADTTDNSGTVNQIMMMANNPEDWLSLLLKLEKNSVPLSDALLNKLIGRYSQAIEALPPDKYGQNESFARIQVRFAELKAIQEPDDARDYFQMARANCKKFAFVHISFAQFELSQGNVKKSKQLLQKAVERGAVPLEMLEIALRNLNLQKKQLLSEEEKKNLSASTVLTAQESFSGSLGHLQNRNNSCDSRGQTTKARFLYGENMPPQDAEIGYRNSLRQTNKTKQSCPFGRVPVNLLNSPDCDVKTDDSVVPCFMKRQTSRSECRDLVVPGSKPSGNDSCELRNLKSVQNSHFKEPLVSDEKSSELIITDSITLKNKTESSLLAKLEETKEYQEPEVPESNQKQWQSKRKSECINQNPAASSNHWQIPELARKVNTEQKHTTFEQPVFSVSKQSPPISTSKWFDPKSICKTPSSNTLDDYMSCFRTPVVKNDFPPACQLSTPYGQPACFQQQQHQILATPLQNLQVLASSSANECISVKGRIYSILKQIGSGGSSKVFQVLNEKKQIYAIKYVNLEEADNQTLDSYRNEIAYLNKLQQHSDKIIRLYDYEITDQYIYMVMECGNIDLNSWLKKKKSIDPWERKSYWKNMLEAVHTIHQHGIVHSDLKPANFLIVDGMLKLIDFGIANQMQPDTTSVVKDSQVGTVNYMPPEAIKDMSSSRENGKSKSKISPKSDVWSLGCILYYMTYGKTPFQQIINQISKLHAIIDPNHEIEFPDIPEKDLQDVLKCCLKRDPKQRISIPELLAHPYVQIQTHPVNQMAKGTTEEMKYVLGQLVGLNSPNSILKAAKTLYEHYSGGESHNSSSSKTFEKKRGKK
Method: To evaluate an inhibitory activity of the compound according to the present invention against LRRK2, LRRK2 (G2019S), DYRK1, CLK1, and TTK kinases, experiments were performed as follows.
Each of the Example compounds was reacted with a purified human TTK (SignalChem #T20-10G) enzyme to evaluate an ability to inhibit an enzyme using a method as described below. A composition of 40 mM Tris-HCl (pH 7.4), 20 mM MgCl2, 0.1 mg/mL BSA (a 5× kinase buffer, SignalChem #K03-09), and 50 μM DTT (SignalChem #D86-09B) was used as a reaction buffer, and all reactions of test substances were performed in the reaction buffer. Each of the compounds was diluted […] from a 10 mM DMSO stock using a serial dilution method, and enzyme activities were measured at final compound concentrations of 1, 0.333333, 0.111111, 0.037037, 0.012346, 0.004115, 0.001372, 0.000457, 0.000152, 0.000051, and 0.000017 μM. In the test, purified ATP (5 μM, Promega #V6930) and an MBP enzyme substrate (0.2 μg, SignalChem M42-51N) were reacted with a human TTK (7.5 ng) enzyme at 25° C. for 4 hours, and the enzyme activities were then determined using an in vitro ADP-Glo™ kinase assay (Promega #V6930). An enzyme-activity reaction solution, an ADP-Glo reaction solution, and an enzyme-ability detection solution were reacted at a ratio of 2:2:1 to measure a degree of inhibition of the enzyme activity with luminescence. The degree of inhibition of the enzyme activity according to the treatment concentration of each of the compounds was calculated based on the fluorescence of the enzyme activity of the solvent control which was not treated with the compound. In this case, the concentration of each of the compounds inhibiting 50% of the enzyme activity was determined to be an IC50 (nM) value, and calculated using Prism (Version 8.2 GraphPad) software.

LRRK2 (G2019S) = LRRK2 (G2019S) (Homo sapiens, UniProt Q5S007, G2019S); assay: Kinase HotSpot service (Reaction Biology Corporation), LRRK2 (G2019S); type: biochemical; set-up: purchased DiscoverX Corp. (ScanMAX Kinase analysis panel, service); settings: ATP 10 uM, read-out: LRRK2 (G2019S) IC50 (values indicated by *)
LRRK2 (G2019S), sequence (Q5S007 whole entry G2019S): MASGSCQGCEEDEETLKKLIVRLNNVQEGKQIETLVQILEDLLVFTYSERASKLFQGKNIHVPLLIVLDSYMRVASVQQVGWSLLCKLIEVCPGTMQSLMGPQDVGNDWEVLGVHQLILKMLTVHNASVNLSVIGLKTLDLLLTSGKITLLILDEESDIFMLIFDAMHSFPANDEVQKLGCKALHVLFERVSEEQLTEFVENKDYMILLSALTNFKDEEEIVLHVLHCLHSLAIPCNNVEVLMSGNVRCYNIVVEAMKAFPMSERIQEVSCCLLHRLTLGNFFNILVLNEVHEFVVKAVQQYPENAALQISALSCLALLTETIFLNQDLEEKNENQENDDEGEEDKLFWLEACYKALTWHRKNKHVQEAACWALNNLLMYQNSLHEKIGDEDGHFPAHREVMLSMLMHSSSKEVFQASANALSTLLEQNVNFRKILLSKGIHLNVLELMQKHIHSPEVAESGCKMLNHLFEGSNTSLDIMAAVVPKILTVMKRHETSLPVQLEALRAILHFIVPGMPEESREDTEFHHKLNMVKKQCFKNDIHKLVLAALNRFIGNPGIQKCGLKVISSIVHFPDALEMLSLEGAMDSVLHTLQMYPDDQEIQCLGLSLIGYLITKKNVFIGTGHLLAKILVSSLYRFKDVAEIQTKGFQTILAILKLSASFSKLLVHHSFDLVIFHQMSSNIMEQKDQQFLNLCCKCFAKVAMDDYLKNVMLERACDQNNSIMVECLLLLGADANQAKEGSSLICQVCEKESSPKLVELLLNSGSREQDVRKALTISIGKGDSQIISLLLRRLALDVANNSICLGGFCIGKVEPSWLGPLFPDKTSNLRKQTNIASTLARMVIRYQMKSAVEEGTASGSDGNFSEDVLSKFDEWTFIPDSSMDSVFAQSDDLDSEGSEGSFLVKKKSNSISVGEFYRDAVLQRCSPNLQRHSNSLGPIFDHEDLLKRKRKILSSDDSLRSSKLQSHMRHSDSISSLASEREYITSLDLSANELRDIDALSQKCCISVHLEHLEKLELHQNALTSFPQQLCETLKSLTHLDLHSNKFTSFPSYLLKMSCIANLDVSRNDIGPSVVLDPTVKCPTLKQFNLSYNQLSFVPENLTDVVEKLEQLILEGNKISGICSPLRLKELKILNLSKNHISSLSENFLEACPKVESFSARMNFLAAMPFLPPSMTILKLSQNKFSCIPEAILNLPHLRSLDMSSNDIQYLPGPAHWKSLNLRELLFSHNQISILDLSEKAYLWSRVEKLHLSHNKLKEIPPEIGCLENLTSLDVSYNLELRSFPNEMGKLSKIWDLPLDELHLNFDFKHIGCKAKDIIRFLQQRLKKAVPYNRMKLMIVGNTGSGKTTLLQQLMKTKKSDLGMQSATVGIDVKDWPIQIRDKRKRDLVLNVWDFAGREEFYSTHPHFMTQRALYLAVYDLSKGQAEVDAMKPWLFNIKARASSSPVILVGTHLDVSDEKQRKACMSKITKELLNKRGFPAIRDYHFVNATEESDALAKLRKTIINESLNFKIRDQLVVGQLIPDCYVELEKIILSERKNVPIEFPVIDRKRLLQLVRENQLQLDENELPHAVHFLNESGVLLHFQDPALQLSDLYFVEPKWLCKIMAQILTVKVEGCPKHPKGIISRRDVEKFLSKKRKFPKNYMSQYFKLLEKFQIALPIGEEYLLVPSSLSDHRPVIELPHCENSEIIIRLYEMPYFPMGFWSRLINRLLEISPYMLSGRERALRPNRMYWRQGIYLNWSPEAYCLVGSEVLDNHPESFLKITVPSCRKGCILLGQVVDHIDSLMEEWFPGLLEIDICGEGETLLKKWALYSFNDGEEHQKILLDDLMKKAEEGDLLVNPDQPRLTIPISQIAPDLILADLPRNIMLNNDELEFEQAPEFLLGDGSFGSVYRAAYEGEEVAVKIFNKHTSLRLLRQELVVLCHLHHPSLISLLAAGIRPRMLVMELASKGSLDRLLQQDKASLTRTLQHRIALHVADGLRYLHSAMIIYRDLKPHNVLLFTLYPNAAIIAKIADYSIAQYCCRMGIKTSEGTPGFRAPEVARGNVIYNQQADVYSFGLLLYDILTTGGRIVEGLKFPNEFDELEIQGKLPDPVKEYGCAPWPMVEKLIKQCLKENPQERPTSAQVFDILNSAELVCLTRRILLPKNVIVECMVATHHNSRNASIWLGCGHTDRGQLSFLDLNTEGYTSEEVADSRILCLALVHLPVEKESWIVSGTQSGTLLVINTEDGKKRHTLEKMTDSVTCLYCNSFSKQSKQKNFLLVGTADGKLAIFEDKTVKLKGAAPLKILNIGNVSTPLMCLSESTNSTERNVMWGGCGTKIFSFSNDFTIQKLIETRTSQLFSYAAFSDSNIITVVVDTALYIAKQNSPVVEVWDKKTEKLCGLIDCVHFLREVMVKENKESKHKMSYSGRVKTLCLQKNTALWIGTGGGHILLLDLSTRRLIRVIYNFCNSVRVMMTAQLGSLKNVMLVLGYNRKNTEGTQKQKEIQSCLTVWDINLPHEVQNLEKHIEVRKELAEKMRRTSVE
Method: as §2, §3

LRRK2 = LRRK2 (Homo sapiens, UniProt Q5S007); assay: Kinase HotSpot service (Reaction Biology Corporation), LRRK2; type: biochemical; set-up: purchased DiscoverX Corp. (ScanMAX Kinase analysis panel, service); settings: ATP 10 uM, read-out: LRRK2 IC50 (values indicated by *)
LRRK2, sequence (Q5S007 whole entry): as the sequence (Q5S007 whole entry G2019S) above, with S2019G counted along it
Method: as §2, §3

MDA-MB-231 cell line = assay: Inhibition of proliferation of MDA-MB-231 cancer cells (Cell Titer-Glo); type: cell-based; settings: Homo sapiens, 72 hours
Procedure, shortened: as §1

IL-6 = assay: Inhibition of LPS-induced IL-6 secretion of THP-1 monocytes (ELISA); type: cell-based, human; settings: Homo sapiens, THP-1; compound 0.5 μM, LPS 500 ng/mL, 24 hours; read-out: THP1/IL6 (% inhib)
Procedure, shortened: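 THP-1 monocytes grown 16 h at 37 °C, pretreated 1 h with compound at final 0.5 μM, then stimulated with LPS at final 500 ng/mL for 24 h. IL-6 and TNF-α in culture supernatant measured by ELISA (OD 450 nm).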

Compound	GI50 (MDA-MB-468 cell line) [nM]	inhibition at 1 µM (human DYRK1A and tau) [%]	inhibition at 0.25 µM (human DYRK1A and tau) [%]	inhibition at 0.5 µM (human DYRK1A and tau) [%]	IC50 (CLK1) [nM]	IC50 (DYRK1) [nM]	IC50 (TTK) [nM]	IC50 (LRRK2 (G2019S)) [nM]	IC50 (LRRK2) [nM]	GI50 (MDA-MB-231 cell line) [nM]	inhibition at 0.5 µM (IL-6) [%]
COc1cc(S(=O)(=O)N2CCOCC2)ccc1Nc1nc(C2CC2)c2c(C(F)(F)F)c[nH]c2n1 [Example 225, 4-cyclopropyl-N-(2-methoxy-4-(morpholinosulfonyl)phenyl)-5-(trifluoromethyl)-7H-pyrrolo[2,3-d]pyrimidin-2-amine]	301 to 1000	29.9	1	-2.5	< 100	< 100	< 100	< 100	< 100	301 to 1000	
O=C(c1ccc(Nc2nc(C3CC3)c3c(C(F)(F)F)c[nH]c3n2)c2c1OCCO2)N1CCOCC1 [Example 227, (8-((4-cyclopropyl-5-(trifluoromethyl)-7H-pyrrolo[2,3-d]pyrimidin-2-yl)amino)-2,3-dihydrobenzo[b][1,4]dioxin-5-yl)(morpholino)methanone]	301 to 1000	32.7	7.4	22.8	< 100	< 100	101 to 300	< 100	< 100		
O=C(c1ccc(Nc2nc(C3CC3)c3c(C(F)(F)F)c[nH]c3n2)c2c1CCO2)N1CC[C@H](N2CCOCC2)C1 [Example 472]	301 to 1000	56.5	23.6	36.5	< 100	< 100	< 100		< 100		31.5

Source: US20230066011A1, “PYRROLOPYRIMIDINE DERIVATIVE, AND PHARMACEUTICAL COMPOSITION FOR PREVENTING OR TREATING PROTEIN KINASE-RELATED DISEASE COMPRISING SAME AS ACTIVE INGREDIENT” (VORONOI CO., LTD., priority 2019, published 2023)
